A word on the solubility: it is the concentration that dissolves in the medium under given conditions. A lower solubility goes with a poorly soluble substance.

This is an account of results in US20150065347A1, “CO-CRYSTALS OF DICAMBA AND A CO-CRYSTAL FORMER B” (priority 2012, published 2015).

Converted amounts (≈) assume the structure as drawn.

Series [1] in a line: Water solubility of the co-crystals (slurry equilibration, HPLC). In kind it is physicochemical. Conditions: water suspension (slurry), thermodynamic from solid; water suspensions slurried for 24 hours, filtered, liquid phase by HPLC, room temperature. The procedure:
The determination of the amount of the actives in solution was performed on HPLC ACQUITY (Water) system, equipped with PDA—230 nm UV detector and Sample Manager auto-injector. Waters' Enpower software was used to record the chromatograms and to calculate the chromatographic parameters. […] Injection volume was set 1 μL by auto injector. The analysis were performed with rate flux of 0.4 ml/min. UV detection was performed at 245 nm. Peak identities were confirmed by spectrum and retention time comparison. All the analyses were performed at room temperature. All the analyzed solutions were prepared by slurry equilibration experiments. […] The suspensions were filtered and both solid phase and liquid phase were analyzed by XRPD and HPLC, respectively.

Series [2] is described as follows: Isothermal TGA volatility study. In kind it is physicochemical. The conditions noted are these: isothermal TGA at 100° C., weight loss monitored for 12 hours, nitrogen flow. As for the experimental part:
TG/DTA measurement was carried out on a Seiko TG/DTA 7200 instrument. An open aluminium pan was used and the measurement was carried out under nitrogen flow with a sample weight of 5 to 10 mg. The isothermal TGA for volatility studies were performed at 100° C. and the weight loss was monitored for 12 hours.

`COc1c(Cl)ccc(Cl)c1C(=O)O` [Dicamba, 3,6-dichloro-2-methoxybenzoic acid] returned a solubility at 24 h in series [1] of 6550 µg/mL (≈ 29.6 mM). The “TGA Volatility (% weight loss per minute)” value in series [2] is 1.20 × 10^−2 % weight loss per minute.
